Data on 16 molecules can be found in patent US10208037B2, “Toll-like receptor-7 and -8 modulatory 1H imidazoquinoline derived compounds” (The University of Kansas, priority 2011, dated 2019).

The target in one assay is T1, TLR7 (Homo sapiens, UniProt Q9NYK1).
T1 construct: expressed in transfected cells; host or cells: HEK293 (HEK-Blue-7 cells)
T1 sequence (Q9NYK1 27-1049): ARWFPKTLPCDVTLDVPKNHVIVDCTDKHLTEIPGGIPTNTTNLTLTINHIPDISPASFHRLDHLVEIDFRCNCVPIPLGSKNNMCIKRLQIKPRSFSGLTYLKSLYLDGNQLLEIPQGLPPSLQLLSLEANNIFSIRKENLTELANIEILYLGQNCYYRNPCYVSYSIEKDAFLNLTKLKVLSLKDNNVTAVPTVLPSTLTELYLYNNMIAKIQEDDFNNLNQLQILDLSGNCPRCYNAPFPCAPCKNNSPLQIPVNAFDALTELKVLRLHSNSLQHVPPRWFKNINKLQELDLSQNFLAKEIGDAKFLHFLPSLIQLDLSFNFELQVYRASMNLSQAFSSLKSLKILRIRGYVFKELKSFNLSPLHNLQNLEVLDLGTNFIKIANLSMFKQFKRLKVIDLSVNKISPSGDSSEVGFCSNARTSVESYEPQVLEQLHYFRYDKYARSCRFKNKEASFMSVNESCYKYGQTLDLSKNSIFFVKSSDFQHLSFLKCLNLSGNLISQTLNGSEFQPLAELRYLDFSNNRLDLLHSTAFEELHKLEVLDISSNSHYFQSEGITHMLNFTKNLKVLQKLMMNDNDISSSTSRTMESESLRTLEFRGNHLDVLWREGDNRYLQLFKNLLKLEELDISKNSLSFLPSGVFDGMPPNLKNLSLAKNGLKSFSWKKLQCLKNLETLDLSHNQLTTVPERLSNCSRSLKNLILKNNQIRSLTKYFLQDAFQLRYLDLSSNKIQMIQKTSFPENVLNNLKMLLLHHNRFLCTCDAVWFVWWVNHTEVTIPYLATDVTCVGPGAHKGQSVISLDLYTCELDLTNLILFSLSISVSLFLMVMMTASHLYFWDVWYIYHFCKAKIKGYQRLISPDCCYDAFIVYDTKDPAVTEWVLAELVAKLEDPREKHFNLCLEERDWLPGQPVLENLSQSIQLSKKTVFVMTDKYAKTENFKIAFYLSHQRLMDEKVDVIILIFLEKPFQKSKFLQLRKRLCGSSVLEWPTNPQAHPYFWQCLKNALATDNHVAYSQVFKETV
Put plainly: TLR7 reporter gene assay (NF-κB induction, HEK-Blue-7 cells), agonism. It counts as cell-based.
Conditions: not given
An excerpt:
NF-κB induction: The induction of NF-κB was quantified using HEK-Blue-7 cells and HEK-Blue-8 cells as previously described by us.^8,24 HEK293 cells were stably transfected with human TLR7 (or human TLR8), MD2, and secreted alkaline phosphatase (sAP), and were maintained in HEK-Blue™ Selection medium containing zeocin and normocin. Stable expression of secreted alkaline phosphatase (sAP) under control of NF-κB/AP-1 promoters is inducible by the TLR7 (or TLR8) agonists, and extracellular sAP in the supernatant is proportional to NF-κB induction. HEK-Blue cells were incubated at a density of […] in a volume of 80 μL/well, in 384-well, flat-bottomed, cell culture-treated microtiter plates until confluency was achieved, and subsequently graded concentrations of stimuli. sAP was assayed spectrophotometrically using an alkaline phosphatase-specific chromogen (present in HEK-detection medium as supplied by the vendor) at 620 nm.
The induction of NF-κB was quantified using HEK-Blue-3, HEK-Blue-7 and HEK-Blue-8 cells as previously described by us.^8,24,51 HEK293 cells were stably transfected with human TLR3 (or human TLR7 or human TLR8), MD2, and secreted alkaline phosphatase (sAP), and were maintained in HEK-Blue™ Selection medium containing zeocin and normocin. Stable expression of secreted alkaline phosphatase (sAP) under control of NF-κB/AP-1 promoters is inducible by the TLR3 (or TLR7 or TLR8) agonists, and extracellular sAP in the supernatant is proportional to NF-κB induction. HEK-Blue cells were incubated at a density of ˜10^5 cells/ml in a volume of 80 μl/well, in 384-well, flat-bottomed, cell culture-treated microtiter plates until confluency was achieved, and subsequently graded concentrations of stimuli. sAP was assayed spectrophotometrically using an alkaline phosphatase-specific chromogen (present in HEK-detection medium as supplied by the vendor) at 620 nm.
Background: Reporter assays use an easily measured gene product as a stand-in for the process of interest.
Regarding `CCCCc1nc2c(N)nc3ccccc3c2n1Cc1ccc(CNC(=S)Nc2ccc(-c3c4ccc(=[N+](CC)CC)cc-4oc4cc(N(CC)CC)ccc34)c(C(=O)O)c2)cc1` [Compound 27, N-(9-(4-(3-(4-((4-amino-2-butyl-1H-imidazo[4,5-c]quinolin-1-yl)methyl)benzyl)thioureido)-2-carboxyphenyl)-6-(diethylamino)-3H-xanthen-3-ylidene)-N-ethylethanaminium], the “TLR7-agonistic activity (in words)” value was “retain TLR7 agonistic activity”.

As to `CCCCc1nc2c(N)nc3ccccc3c2n1Cc1cccc2ccccc12` [Compound 6a], the “TLR7-agonistic activity (in words)” value is “inactive”.

On to `CCCCc1nc2c(N)nc3ccccc3c2n1Cc1ccc(CNC(=S)Nc2cccc(-c3c4ccc(=O)cc-4oc4cc(O)ccc34)c2C(=O)O)cc1` [Compound 26, 2-(3-(4-((4-Amino-2-butyl-1H-imidazo [4,5-c]quinolin-1-yl)methyl)benzyl)thioureido)-6-(6-hydroxy-3-oxo-3H-xanthen-9-yl)benzoic Acid], for which the “TLR7-agonistic activity (in words)” value is listed as “retain TLR7 agonistic activity”.

The assay is the same for the next values; noted with them: Table 1; ND = not detected; read-out: TLR7 Agonism.
Consider `CCCCc1nc2c(N)nc3ccc(NC(=O)CCCCC(=O)Nc4ccc5nc(N)c6nc(CCCC)n(Cc7ccc(CN)cc7)c6c5c4)cc3c2n1Cc1ccc(CN)cc1` [Compound 55a, N^1,N^6-bis(4-amino-1-(4-(aminomethyl)benzyl)-2-butyl-1H-imidazo[4,5-c]quinolin-8-yl) adipamide], for which the EC50 is 7240 nM. `CCCCc1nc2c(NCCCCCCCCNc3nc4ccccc4c4c3nc(CCCC)n4Cc3ccccc3)nc3ccccc3c2n1Cc1ccccc1` [Compound 51b, N^1,N-bis(1-benzyl-2-butyl-1H-imidazo[4,5-c]quinolin-4-yl)octane-1,8-diamine]: the EC50 came to 560 nM. In the case of `CCCCc1nc2c(N)nc3ccc(N)cc3c2n1Cc1ccc(CN)cc1` [Compound 54a, 1-(4-(aminomethyl)benzyl)-2-butyl-1H-imidazo[4,5-c]quinoline-4,8-diamine], the EC50 was 450 nM.

For the molecule `CCCCc1nc2c(N)nc3ccc(NC(=O)CCCCCCC(=O)Nc4ccc5nc(N)c6nc(CCCC)n(Cc7ccc(CN)cc7)c6c5c4)cc3c2n1Cc1ccc(CN)cc1` [Compound 55b, N^1,N^8-bis(4-amino-1-(4-(aminomethyl)benzyl)-2-butyl-1H-imidazo[4,5-c]quinolin-8-yl)octanediamide], the EC50 was found to be 4020 nM. Consider `CCCCc1nc2c(N)nc3ccccc3c2n1Cc1ccc(CNC(=O)CCCCCCC(=O)NCc2ccc(Cn3c(CCCC)nc4c(N)nc5ccccc5c43)cc2)cc1` [Compound 52b, N^1,N-bis(4-((4-amino-2-butyl-1H-imidazo[4,5-c]quinolin-1-yl)methyl)benzyl)octanediamide], for which the EC50 stood at 240 nM.

With `CCCCc1nc2c(NCCCCCCCCCCNc3nc4ccccc4c4c3nc(CCCC)n4Cc3ccccc3)nc3ccccc3c2n1Cc1ccccc1` [Compound 51c, N^1,N^10-bis(1-benzyl-2-butyl-1H-imidazo[4,5-c]quinolin-4-yl)decane-1,10-diamine], the EC50 stood at 3000 nM. With `CCCCc1nc2c(N)nc3ccc([N+](=O)[O-])cc3c2n1Cc1ccc(CN)cc1` [Compound 53a, 1-(4-(aminomethyl)benzyl)-2-butyl-8-nitro-1H-imidazo[4,5-c]quinolin-4-amine], the EC50 was 560 nM. Still for that read-out and setting: in the case of `CCCCc1nc2c(NCCCCNc3nc4ccccc4c4c3nc(CCCC)n4Cc3ccccc3)nc3ccccc3c2n1Cc1ccccc1` [Compound 51a, N^1,N^4-bis(1-benzyl-2-butyl-1H-imidazo[4,5-c]quinolin-4-yl)butane-1,4-diamine] it was 2050 nM; in that of `CCCCc1nc2c(NCCCCCCCCCCCCNc3nc4ccccc4c4c3nc(CCCC)n4Cc3ccccc3)nc3ccccc3c2n1Cc1ccccc1` [Compound 51d, N^1,N^12-bis(1-benzyl-2-butyl-1H-imidazo[4,5-c]quinolin-4-yl)dodecane-1,12-diamine], 1420 nM. In the case of `CCCCc1nc2c(N)nc3ccccc3c2n1Cc1ccc(CNC(=O)CCCCC(=O)NCc2ccc(Cn3c(CCCC)nc4c(N)nc5ccccc5c43)cc2)cc1` [Compound 52a, N^1,N^6-bis(4-((4-amino-2-butyl-1H-imidazo[4,5-c]quinolin-1-yl)methyl)benzyl)adipamide], the EC50 amounted to 110 nM.

Still in this assay, the particulars now being: read-out: EC50 (agonistic activity).
As to `CCCCc1nc2c(N)nc3ccccc3c2n1Cc1ccc(CNC(=S)NCC(=O)NCC(=O)NCC(=O)OC)cc1` [Compound 29, Methyl 1-(4-((4-amino-2-butyl-1H-imidazo[4,5-c]quinolin-1-yl)methyl)phenyl)-6,9-dioxo-3-thioxo-2,4,7,10-tetraazadodecan-12-oate], the EC50 is 269 nM. Consider `CCCCc1nc2c(N)nc3ccccc3c2n1Cc1ccc(CNC(=O)CCN2C(=O)CC(SC[C@@H](NC(=O)CC[C@@H](N)C(=O)OC)C(=O)NCC(=O)OC)C2=O)cc1` (stereo partly drawn) [Compound 30b, (2R)-methyl 2-amino-5-((2S)-3-(1-(3-(4-((4-amino-2-butyl-1H-imidazo[4,5-c]quinolin-1-yl)methyl)benzylamino)-3-oxopropyl)-2,5-dioxopyrrolidin-3-ylthio)-1-(2-methoxy-2-oxoethylamino)-1-oxopropan-2-ylamino)-5-oxopentanoate], for which the EC50 stood at 2200 nM. As to `CCCCc1nc2c(N)nc3ccccc3c2n1Cc1ccc(-c2ccccc2)cc1` [Compound 6b, 1-(Biphenyl-4-ylmethyl)-2-butyl-1H-imidazo[4,5-c]quinolin-4-amine], the EC50 was 396 nM.
